Measurements taken from ChEMBL document CHEMBL1153142, “Scaffold hopping from pyridones to imidazo[1,2-a]pyridines. New positive allosteric modulators of metabotropic glutamate 2 receptor” (Bioorg Med Chem Lett, 2010).

Columns and labels:
[1] = target: T1, Metabotropic glutamate receptor 2 (Homo sapiens, UniProt Q14416); assay: Allosteric modulation of human mGluR2 expressed in CHO cells by [35S]GTPgammaS binding assay relative to glutamate; format: functional, cell-based
Target sequence in this assay (Q14416 19-872 limits assumed): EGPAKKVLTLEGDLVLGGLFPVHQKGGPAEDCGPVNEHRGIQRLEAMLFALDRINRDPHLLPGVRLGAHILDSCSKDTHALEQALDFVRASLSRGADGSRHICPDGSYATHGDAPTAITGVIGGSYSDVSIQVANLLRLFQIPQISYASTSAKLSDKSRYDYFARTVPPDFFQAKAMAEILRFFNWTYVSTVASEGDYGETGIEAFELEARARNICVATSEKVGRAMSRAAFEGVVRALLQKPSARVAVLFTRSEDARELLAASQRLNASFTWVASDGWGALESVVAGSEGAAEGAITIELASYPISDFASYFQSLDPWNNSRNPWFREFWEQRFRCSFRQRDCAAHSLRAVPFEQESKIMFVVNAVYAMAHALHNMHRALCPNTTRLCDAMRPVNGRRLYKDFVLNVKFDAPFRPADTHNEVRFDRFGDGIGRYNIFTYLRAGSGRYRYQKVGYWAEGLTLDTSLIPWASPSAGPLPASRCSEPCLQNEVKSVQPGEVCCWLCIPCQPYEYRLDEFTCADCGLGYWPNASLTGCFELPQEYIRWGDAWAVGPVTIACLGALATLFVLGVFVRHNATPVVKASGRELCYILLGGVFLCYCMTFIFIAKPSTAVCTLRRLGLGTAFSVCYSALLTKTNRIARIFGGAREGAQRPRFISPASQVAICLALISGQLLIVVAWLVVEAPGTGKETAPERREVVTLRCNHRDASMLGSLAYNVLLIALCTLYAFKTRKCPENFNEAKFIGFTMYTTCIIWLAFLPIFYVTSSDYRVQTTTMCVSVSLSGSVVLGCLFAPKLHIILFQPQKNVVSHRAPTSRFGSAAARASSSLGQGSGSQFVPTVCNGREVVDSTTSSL

[2] = target: T1, Metabotropic glutamate receptor 2; assay: Allosteric modulation of human mGluR2 expressed in CHO cells by [35S]GTPgammaS binding assay; format: functional, cell-based
Target sequence in this assay (Q14416 whole entry): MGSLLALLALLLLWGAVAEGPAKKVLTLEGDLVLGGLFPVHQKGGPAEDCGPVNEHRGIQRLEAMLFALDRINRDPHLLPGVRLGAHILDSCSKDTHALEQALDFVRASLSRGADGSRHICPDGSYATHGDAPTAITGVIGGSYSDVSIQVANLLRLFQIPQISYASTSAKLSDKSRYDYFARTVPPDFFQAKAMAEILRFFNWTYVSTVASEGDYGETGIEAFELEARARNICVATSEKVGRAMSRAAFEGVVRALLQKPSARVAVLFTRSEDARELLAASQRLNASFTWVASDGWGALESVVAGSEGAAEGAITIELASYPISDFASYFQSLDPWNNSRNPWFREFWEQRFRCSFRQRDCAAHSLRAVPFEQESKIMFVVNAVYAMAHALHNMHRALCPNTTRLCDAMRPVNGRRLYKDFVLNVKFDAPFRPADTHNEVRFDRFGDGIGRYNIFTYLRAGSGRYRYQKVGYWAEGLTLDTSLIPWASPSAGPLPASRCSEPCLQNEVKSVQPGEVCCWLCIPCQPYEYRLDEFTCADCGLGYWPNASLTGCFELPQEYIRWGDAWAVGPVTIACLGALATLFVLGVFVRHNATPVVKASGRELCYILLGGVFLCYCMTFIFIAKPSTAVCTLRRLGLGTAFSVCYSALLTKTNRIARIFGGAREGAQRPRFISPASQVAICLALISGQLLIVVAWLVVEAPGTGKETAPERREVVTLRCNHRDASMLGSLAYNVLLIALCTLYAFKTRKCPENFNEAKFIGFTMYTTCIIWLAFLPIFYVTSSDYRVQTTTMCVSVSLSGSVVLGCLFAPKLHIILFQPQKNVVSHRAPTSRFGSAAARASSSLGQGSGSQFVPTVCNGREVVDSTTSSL

SMILES	Emax [1]	EC50 [2]
CC(C)(C)c1ccc(-c2ccn3c(CC(F)(F)F)cnc3c2C#N)cc1	272%	–
CCCc1cnc2c(C#N)c(N3CCN(c4nc(C)cc(C)n4)CC3)ccn12	179%	–
N#Cc1c(-c2ccc(N3CCCCC3)cc2)ccn2c(CC(F)(F)F)cnc12	123%	–
N#Cc1c(N2CCN(c3ncccn3)CC2)ccn2c(CC(F)(F)F)cnc12	231%	–
N#Cc1c(-c2ccc(OCc3ccccc3)cc2)ccn2c(CC(F)(F)F)cnc12	222%	–
CCc1cnc2c(C#N)c(N3CCN(c4ncccn4)CC3)ccn12	214%	> 3.16 µM
N#Cc1c(N2CCN(c3ncccn3)CC2)ccn2c(CCC3CC3)cnc12	229%	–
N#Cc1c(N2CCN(c3ccccc3)CC2)ccn2c(-c3ccccc3)cnc12	73%	> 3.16 µM
N#Cc1c(-c2ccc(NC3CC3)c(Cl)c2)ccn2c(CC(F)(F)F)cnc12	187%	–

The remaining lines, values ahead:

Emax [1]	EC50 [2]	SMILES
241%	–	CCCc1cnc2c(C#N)c(N3CCN(c4ccccc4)CC3)ccn12
248%	> 3.16 µM	CCCc1cnc2c(C#N)c(N3CCN(c4ncccn4)CC3)ccn12
200%	–	N#Cc1c(-c2ccc(Oc3ccccc3)cc2)ccn2c(CC(F)(F)F)cnc12
128%	–	Cc1cc(C)nc(N2CCN(c3ccn4c(CC(F)(F)F)cnc4c3C#N)CC2)n1
142%	–	CCc1cnc2c(C#N)c(N3CCN(c4nc(C)cc(C)n4)CC3)ccn12
213%	–	Cc1c(OCc2cccc(-c3ccc(C(=O)O)cc3)c2)cc2c(c1C)C(=O)C(C1CCCC1)C2 (centres undefined)
235%	–	CCCCn1ccc(N2CCN(c3nc(C)cc(C)n3)CC2)c(C#N)c1=O
